The text below walks through data of patent publication US9765074B2, “Inhibitors of the renal outer medullary potassium channel” (Merck Sharp & Dohme Corp., priority 2013, dated 2017).

The experiment has as its target T1, hROMK (hKir1.1) (Homo sapiens, UniProt P48048).
T1 construct: expressed in transfected cells
T1 sequence (P48048 1-391): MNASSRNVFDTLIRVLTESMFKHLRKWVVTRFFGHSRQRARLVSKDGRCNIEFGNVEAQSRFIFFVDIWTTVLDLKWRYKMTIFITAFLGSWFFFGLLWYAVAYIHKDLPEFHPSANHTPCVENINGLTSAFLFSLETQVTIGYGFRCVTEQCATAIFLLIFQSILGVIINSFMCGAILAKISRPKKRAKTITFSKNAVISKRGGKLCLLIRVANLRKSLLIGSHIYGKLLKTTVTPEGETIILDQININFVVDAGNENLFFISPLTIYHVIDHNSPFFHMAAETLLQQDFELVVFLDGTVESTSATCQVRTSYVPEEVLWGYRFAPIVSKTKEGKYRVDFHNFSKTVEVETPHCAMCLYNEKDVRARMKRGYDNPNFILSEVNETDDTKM
Description: Thallium Flux Assay (ROMK channel functional thallium flux, FLIPR-Tetra). It is filed as cell-based. The conditions noted are these: HEK293 cells stably expressing hROMK (hKir1.1); 30 min compound incubation. The method, boiled down: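 HEK293 cells stably expressing hKir1.1, loaded with FluxOR dye for 90 min, then preincubated with compound for 30 min at ambient temperature with 0.3 mM ouabain and probenecid. Stimulated with 3 mM thallium/0.3 mM potassium (final); fluorescence read ~10 min. Normalized to 3 μM reference ROMK inhibitor; IC50 from inhibition of flux.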

The IC50 is the point on the concentration scale where inhibition reaches its midpoint. The low end stands for higher potency, the high end for lower potency. In turn, `COC1CN(C[C@H](O)c2cnc(-n3cnnn3)cn2)CCC12CCN(C1=C(C)C(=O)OC1)C2=O` (single isomer, unassigned) [Example 172] yielded an IC50 of 180 nM. The result for `COC1CN(C[C@@H](O)c2cnc(-n3cnnn3)cn2)CCC12CCN(C1=C(C)C(=O)OC1)C2=O` (single isomer, unassigned) [Example 173] reads 770 nM.

Turning to `COC1CN(C[C@H](O)c2ccc(-n3cnnn3)nc2)CCC12CCN(C1=C(C)C(=O)OC1)C2=O` (single isomer, unassigned) [Example 176], the IC50 is 90 nM.

On to `COC1CN(C[C@@H](O)c2ccc(-n3cnnn3)nc2)CCC12CCN(C1=C(C)C(=O)OC1)C2=O` (single isomer, unassigned) [Example 177], for which the IC50 amounted to 70 nM. For the compound `COC1CN(C[C@H](O)c2cnc(-n3cnnn3)cn2)CCC12CCN(C1=C(C)C(=O)OC1)C2=O` (single isomer, unassigned) [Example 178], half-maximal inhibition (IC50) required 790 nM. The result for `COC1CN(C[C@@H](O)c2cnc(-n3cnnn3)cn2)CCC12CCN(C1=C(C)C(=O)OC1)C2=O` (single isomer, unassigned) [Example 179] reads 330 nM; that for `CC1=C(N2CCC3(CCN(C[C@H](O)c4ccc(-n5cnnn5)nn4)CC3F)C2=O)COC1=O` (single isomer, unassigned) [Example 183], 80 nM; that for `CC1=C(N2CCC3(CCN(C[C@@H](O)c4ccc(-n5cnnn5)nn4)CC3F)C2=O)COC1=O` (single isomer, unassigned) [Example 184], 70 nM. The same measure for `CC1=C(N2CCC3(CCN(C[C@H](O)c4nnc(-n5cnnn5)cc4C)CC3F)C2=O)COC1=O` (single isomer, unassigned) [Example 185]: 50 nM. The same measure for `CC1=C(N2CCC3(CCN(C[C@@H](O)c4nnc(-n5cnnn5)cc4C)CC3F)C2=O)COC1=O` (single isomer, unassigned) [Example 186]: 70 nM. In the case of `CC1=C(N2CCC3(CCN(C[C@H](O)c4ccc(-n5cnnn5)nc4)CC3F)C2=O)COC1=O` (single isomer, unassigned) [Example 192], the midpoint of inhibition, the IC50, lay at 10 nM. The result for `CC1=C(N2CCC3(CCN(C[C@@H](O)c4ccc(-n5cnnn5)nc4)CC3F)C2=O)COC1=O` (single isomer, unassigned) [Example 193] reads 20 nM. The same measure for `CC1=C(N2CCC3(CCN(C[C@H](O)c4ccc(-n5cnnn5)nc4)CC3F)C2=O)COC1=O` (single isomer, unassigned) [Example 194]: 10 nM. The same measure for `CC1=C(N2CCC3(CCN(C[C@@H](O)c4ccc(-n5cnnn5)nc4)CC3F)C2=O)COC1=O` (single isomer, unassigned) [Example 195]: 10 nM; for `CC1=C(N2CCC3(CCN(C[C@H](O)c4ccc(-n5cnnn5)nn4)CC3F)C2=O)COC1=O` (single isomer, unassigned) [Example 196]: 40 nM. For the compound `CC1=C(N2CCC3(CCN(C[C@@H](O)c4ccc(-n5cnnn5)nn4)CC3F)C2=O)COC1=O` (single isomer, unassigned) [Example 197], the IC50 turned out to be 30 nM.

`CC1=C(N2CCC3(CCN(C[C@H](O)c4nnc(-n5cnnn5)cc4C)CC3F)C2=O)COC1=O` (single isomer, unassigned) [Example 198] showed an IC50 of 10 nM. The same measure for `CC1=C(N2CCC3(CCN(C[C@@H](O)c4nnc(-n5cnnn5)cc4C)CC3F)C2=O)COC1=O` (single isomer, unassigned) [Example 199]: 20 nM.

Compound `CC1=C(N2CCC3(CCN(C[C@H](O)c4ccc(-n5cnnn5)nc4C)CC3O)C2=O)COC1=O` (single isomer, unassigned) [Example 202] yielded an IC50 of 60 nM.

The compound `CC1=C(N2CCC3(CCN(C[C@H](O)c4ccc(-n5cnnn5)nc4C)CC3O)C2=O)COC1=O` (single isomer, unassigned) [Example 203] gave an IC50 of 150 nM. As for `O=C1C=C(N2C(=O)C3(CCN(C[C@H](O)c4cnc(-n5cnnn5)cn4)CC3)CC2CF)CO1` (single isomer, unassigned) [Example 204], the IC50 was 300 nM. The result for `O=C1C=C(N2C(=O)C3(CCN(C[C@H](O)c4cnc(-n5cnnn5)cn4)CC3)CC2CF)CO1` (single isomer, unassigned) [Example 205] reads 30 nM; that for `CC1OC(=O)C=C1N1C(=O)C2(CCN(C[C@H](O)c3ccc(-n4cnnn4)nc3)CC2)C[C@@H]1C` (single isomer, unassigned) [Example 228], 20 nM. The same measure for `CC1OC(=O)C=C1N1C(=O)C2(CCN(C[C@H](O)c3ccc(-n4cnnn4)nc3)CC2)C[C@@H]1C` (single isomer, unassigned) [Example 229]: 280 nM. The same measure for `CC1OC(=O)C=C1N1C(=O)C2(CCN(C[C@H](O)c3ccc(-n4cnnn4)nc3)CC2)C[C@H]1C` (single isomer, unassigned) [Example 230]: 80 nM; for `CC1OC(=O)C=C1N1C(=O)C2(CCN(C[C@H](O)c3ccc(-n4cnnn4)nc3)CC2)C[C@H]1C` (single isomer, unassigned) [Example 231]: 1530 nM.

For `CC1CC2(CCN(CCc3cnc(-n4cnnn4)cn3)CC2)C(=O)N1C1=CC(=O)OC1` (single isomer, unassigned) [Example 242, 3-methyl-1-oxo-2-(5-oxo-2,5-dihydrofuran-3-yl)-8-{2-[5-(1H-tetrazol-1-yl)pyrazin-2-yl]ethyl}-2-aza-8-azoniaspiro[4.5]decane], the IC50 came to 40 nM. The same measure for `CC1=C(N2CC(O)C3(CCN(CCc4ccc(-n5cnnn5)nn4)CC3)C2=O)COC1=O` (single isomer, unassigned) [Example 243, 4-hydroxy-2-(4-methyl-5-oxo-2,5-dihydrofuran-3-yl)-1-oxo-8-{2-[6-(1H-tetrazol-1-yl)pyridazin-3-yl]ethyl}-2-aza-8-azoniaspiro[4.5]decane]: 210 nM. As for `CC1=C(N2CC(O)C3(CCN(CCc4ccc(-n5cnnn5)nc4)CC3)C2=O)COC1=O` (single isomer, unassigned) [Example 244, 4-hydroxy-2-(4-methyl-5-oxo-2,5-dihydrofuran-3-yl)-1-oxo-8-{2-[6-(1H-tetrazol-1-yl)pyridin-3-yl]ethyl}-2-aza-8-azoniaspiro[4.5]decane], the IC50 stood at 30 nM.

With `CC1=C(N2CC(O)C3(CCN(CCc4ccc(-n5cnnn5)nc4)CC3)C2=O)COC1=O` (single isomer, unassigned) [Example 245, 4-hydroxy-2-(4-methyl-5-oxo-2,5-dihydrofuran-3-yl)-1-oxo-8-{2-[6-(1H-tetrazol-1-yl)pyridin-3-yl]ethyl}-2-aza-8-azoniaspiro[4.5]decane], it took 20 nM to reach half-maximal inhibition (IC50).

`COC1CN(CCc2ccc(-n3cnnn3)nn2)CCC12CCN(C1=C(C)C(=O)OC1)C2=O` (single isomer, unassigned) [Example 257, 6-methoxy-2-(4-methyl-5-oxo-2,5-dihydrofuran-3-yl)-8-{2-[6-(1H-tetrazol-1-yl)pyridazin-3-yl]ethyl}-2,8-diazaspiro[4.5]decan-1-one] registered an IC50 of 100 nM.

`COC1CN(CCc2ccc(-n3cnnn3)nn2)CCC12CCN(C1=C(C)C(=O)OC1)C2=O` (single isomer, unassigned) [Example 258, 6-methoxy-2-(4-methyl-5-oxo-2,5-dihydrofuran-3-yl)-8-{2-[6-(1H-tetrazol-1-yl)pyridazin-3-yl]ethyl}-2,8-diazaspiro[4.5]decan-1-one] registered an IC50 of 120 nM. The same measure for `COC1CN(CCc2nnc(-n3cnnn3)cc2C)CCC12CCN(C1=C(C)C(=O)OC1)C2=O` (single isomer, unassigned) [Example 259, 6-methoxy-2-(4-methyl-5-oxo-2,5-dihydrofuran-3-yl)-8-{2-[4-methyl-6-(1H-tetrazol-1-yl)pyridazin-3-yl]ethyl}-2,8-diazaspiro[4.5]decan-1-one]: 100 nM; for `COC1CN(CCc2nnc(-n3cnnn3)cc2C)CCC12CCN(C1=C(C)C(=O)OC1)C2=O` (single isomer, unassigned) [Example 260, 6-methoxy-2-(4-methyl-5-oxo-2,5-dihydrofuran-3-yl)-8-{2-[4-methyl-6-(1H-tetrazol-1-yl)pyridazin-3-yl]ethyl}-2,8-diazaspiro[4.5]decan-1-one]: 120 nM. Regarding `CC1=C(N2CCC3(CCN(CCc4ccc(-n5cnnn5)nn4)CC3F)C2=O)COC1=O` (single isomer, unassigned) [Example 265, 6-fluoro-2-(4-methyl-5-oxo-2,5-dihydrofuran-3-yl)-8-{2-[6-(1H-tetrazol-1-yl)pyridazin-3-yl]ethyl}-2,8-diazaspiro[4.5]decan-1-one], the IC50 was determined as 10 nM.

`CC1=C(N2CCC3(CCN(CCc4ccc(-n5cnnn5)nn4)CC3F)C2=O)COC1=O` (single isomer, unassigned) [Example 266, 6-fluoro-2-(4-methyl-5-oxo-2,5-dihydrofuran-3-yl)-8-{2-[6-(1H-tetrazol-1-yl)pyridazin-3-yl]ethyl}-2,8-diazaspiro[4.5]decan-1-one] showed an IC50 of 10 nM. The compound `CC1=C(N2CCC3(CCN(CCc4nnc(-n5cnnn5)cc4C)CC3F)C2=O)COC1=O` (single isomer, unassigned) [Example 267, 6-fluoro-2-(4-methyl-5-oxo-2,5-dihydrofuran-3-yl)-8-{2-[4-methyl-6-(1H-tetrazol-1-yl)pyridazin-3-yl]ethyl}-2,8-diazaspiro[4.5]decan-1-one] came in with an IC50 of 10 nM.
